Laboratory results published in US20190375786A1, “STABLE PEPTIDES AND METHODS OF USE THEREOF” (Fred Hutchinson Cancer Research Center, priority 2016, published 2019).
Positions of bridges follow the written chain, without caps; N, C: chain ends. Residues, ends and D or L forms follow the SMILES beside them.

What was measured:
[1] = Resistance to reduction by DTT, RP-HPLC; type: physicochemical; settings: 10 mM DTT in PBS, room temperature, 30 minutes; HPLC peak vs untreated peptide
Experimental: Peptides were first suspended in 500 ul of ddH2O to a stock concentration of 2 mg/ml. Reactions were prepared by adding 12.5 ug of peptide from the stock solution to a 10 mM solution of DTT in PBS and allowed to incubate at room temperature for 30 minutes. Other reactions were prepared with 12.5 μg peptide with or without 500 U/ml pepsin in simulated gastric fluid (SGF; pH 1.05; […] sodium chloride in 0.7% (v/v) hydrochloric acid) and were incubated for 30 minutes at 37.5° C. Some reactions were quenched with a final concentration of 100 mM Tris base and 10 mM dithiothreitol (DTT). Some reactions were performed in all of the above components, including simulated gastric fluid, pepsin, Tris, and DTT (referred to as SPTD). Reversed phase HPLC (RP-HPLC) was run on samples using an Agilent 1260 HPLC equipped with a C-18 Poroshell 120B column. Sample were analyzed by a gradient method with a mobile phase of Solvent A (water with 0.1% TFA) and Solvent B (acetonitrile with 0.1% TFA). Solvent B was ramped up from 5%-45% of the mobile phase over a period of 10 minutes. Peptides were detected at an absorbance of 214 nm and 280 nm.
Peptides were first suspended in 500 μl of ddH2O to a stock concentration of 2 mg/ml. Reactions were prepared by adding 12.5 μg of peptide from the stock solution to a 10 mM solution of DTT in PBS and allowed to incubate at room temperature for 30 minutes. Other reactions were prepared with 12.5 μg peptide and 500 U/ml trypsin in 25 mM Tris/75 mM NaCl buffer (pH 7.0) and incubated for 30 minutes at 37.5° C. These reactions were then quenched with 5 μg of soybean trypsin inhibitor (I) and, in some cases, 10 mM dithiothreitol (DTT). Reversed phase HPLC (RP-HPLC) was run on samples using an Agilent 1260 HPLC equipped with a C-18 Poroshell 120B column. Sample were analyzed by a gradient method with a mobile phase of Solvent A (water with 0.1% TFA) and Solvent B (acetonitrile with 0.1% TFA). Solvent B was ramped up from 5%-45% of the mobile phase over a period of 10 minutes. For testing pepsin digestion resistance, reactions were prepared with 12.5 μg peptide with or without 500 U/ml pepsin in simulated gastric fluid (SGF; pH 1.05; […] sodium chloride in 0.7% (v/v) hydrochloric acid) and were incubated for 30 minutes at 37.5° C. For testing temperature resistance, peptides were incubated at 70° C., 75° C., or 100° C. for one hour in 0.5 mM PBS, pelleted, and then the supernatant was analyzed by HPLC.
This example illustrates peptide stability in biological conditions including in the presence of reducing agents, proteases, oxidative conditions, acidic conditions, and simulated gastric fluids. […] Various peptides were suspended in 500 μl of ddH2O at a stock concentration of 2 mg/ml. This was then diluted in accord with the reaction conditions to prevent adverse buffering effects. Reactions were prepared with 12.5 μg peptide dissolved in solution and, in some samples, additionally suspended in a 10 mM solution of DTT, simulated gastric fluid (pH 1.05; […] sodium chloride in 0.7% (v/v) hydrochloric acid), 500 U pepsin (5000 U/ml pepsin), 50 U trypsin (500 U/ml trypsin) with 1 mg/ml inhibitor in PBS, or a combination of any of these conditions. All protease reactions were incubated for 30 min at room temperature and then quenched. Pepsin reactions were quenched by adding Tris base to a final concentration of 0.075 M. Trypsin reactions were quenched by adding excess soybean trypsin inhibitor. RP-HPLC was then run on samples using an Agilent 1260 HPLC equipped with a C-18 Poroshell 120B column. Sample were analyzed by a gradient method with a mobile phase of Solvent A (water with 0.1% TFA) and Solvent B (acetonitrile with 0.1% TFA). Solvent B was ramped up from 5%-45% of the mobile phase over a period of 10 minutes.
FIG. 18 illustrates high performance liquid chromatograph (HPLC) traces of peptides in non-reducing (NR) conditions (solid trace) or in 10 mM DTT reducing (R) conditions (dashed trace). […]

trypsin = trypsin (Sus scrofa, UniProt P00761); experiment: Trypsin digestion resistance of soluble peptide, RP-HPLC; type: in vitro ADME, porcine; set-up: purchased Sigma Aldrich 6567; settings: 30 minutes at 37.5° C.; for Resistance to Trypsin (500 U/ml): 500 U/ml trypsin, HPLC peak vs untreated peptide
Summary of the method: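 Read-out was RP-HPLC (C-18, water/acetonitrile with 0.1% TFA, 5-45% over 10 min) of peptide left after trypsin treatment. Digest: 12.5 μg peptide, 500 U/ml porcine trypsin, PBS, 37.5° C for 30 min, stopped by soybean trypsin inhibitor; samples then reduced (10 mM DTT) or left non-reduced.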

pepsin = pepsin (Sus scrofa, UniProt P00791); experiment: Pepsin digestion resistance in simulated gastric fluid, RP-HPLC; type: in vitro ADME, porcine; set-up: purchased Sigma Aldrich P7012; settings: for Resistance to Pepsin (500 U/ml): 500 U/ml pepsin in SGF pH 1.05, 30 minutes at 37.5° C., HPLC peak vs untreated peptide
Summary of the method: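 Digestion resistance read by reversed-phase HPLC (C-18, 0.1% TFA, 5–45% acetonitrile over 10 min; 214/280 nm) after 12.5 μg peptide spent 30 min at 37.5 °C in pH 1.05 simulated gastric fluid, with or without 500 U/ml pepsin. Some samples quenched with Tris base and DTT.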

Chain of trypsin (P00761 9-231): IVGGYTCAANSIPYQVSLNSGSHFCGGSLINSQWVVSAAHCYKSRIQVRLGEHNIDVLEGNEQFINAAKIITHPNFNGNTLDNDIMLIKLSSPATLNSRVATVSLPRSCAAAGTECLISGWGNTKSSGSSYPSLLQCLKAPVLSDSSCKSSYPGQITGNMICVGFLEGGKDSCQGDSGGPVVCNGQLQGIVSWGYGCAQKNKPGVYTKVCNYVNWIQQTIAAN
Chain of pepsin (P00791 60-385): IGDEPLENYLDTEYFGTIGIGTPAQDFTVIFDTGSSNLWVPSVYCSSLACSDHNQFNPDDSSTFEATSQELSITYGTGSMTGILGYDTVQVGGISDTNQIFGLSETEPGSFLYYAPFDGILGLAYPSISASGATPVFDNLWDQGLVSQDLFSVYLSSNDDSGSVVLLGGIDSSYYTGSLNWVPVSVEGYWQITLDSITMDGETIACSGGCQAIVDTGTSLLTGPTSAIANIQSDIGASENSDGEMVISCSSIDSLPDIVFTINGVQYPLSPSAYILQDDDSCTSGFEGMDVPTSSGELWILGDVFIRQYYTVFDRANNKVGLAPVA

## 40 (GSPDEYIERAKECCKKGDIQCCLRYFEESGDPNVMLICAFCP) [compound 40]
[1]
  Resistance to DTT Reduction (10 mM): Low (A peptide classified as low indicates that the majority (over 75%) of the HPLC peak of the treated peptide disappeared as compared to the HPLC peak of the untreated peptide)

## CSCC[C@@H]1NC(=O)[C@@H]2CSSC[C@H](NC(=O)[C@H](CCCCN)NC(=O)[C@@H](NC(=O)[C@H](CC(=O)O)NC(=O)[C@@H](NC(=O)[C@H](Cc3ccccc3)NC(=O)[C@H](CCC(N)=O)NC(=O)[C@H](CO)NC(=O)CN)[C@@H](C)O)C(C)C)C(=O)N[C@@H]([C@@H](C)O)C(=O)NCC(=O)N[C@@H](CO)C(=O)N[C@@H](CCCCN)C(=O)N[C@@H](CCC(N)=O)C(=O)N[C@H]3CSSC[C@H](NC(=O)[C@H](CCCCN)NC(=O)CNC(=O)[C@H](CC(N)=O)NC1=O)C(=O)N[C@@H](CCCNC(=N)N)C(=O)N[C@H](C(=O)N[C@@H](Cc1ccc(O)cc1)C(=O)N[C@@H](CO)C(=O)O)CSSC[C@H](NC(=O)[C@H](C(C)C)NC(=O)[C@@H]1CCCN1C(=O)[C@H](Cc1c[nH]c4ccccc14)NC3=O)C(=O)N[C@@H](CCCCN)C(=O)N[C@@H](CCC(N)=O)C(=O)N[C@@H](CCSC)C(=O)N[C@@H](Cc1ccccc1)C(=O)NCC(=O)N[C@@H](CCCCN)C(=O)N1CCC[C@H]1C(=O)N[C@@H](CC(N)=O)C(=O)NCC(=O)N[C@@H](CCCCN)C(=O)N2 [SEQ ID NO: 12] (H-GSQFTDVKCTGSKQCWPVCKQMFGKPNGKCMNGKCRCYS-OH; disulfide 9-30, 15-35, 19-37)
trypsin; 500 U/ml trypsin (50 U per reaction), HPLC
  resistance to trypsin digestion (in words): moderately resistant
pepsin; 500 U/ml pepsin (50 U per reaction) in SGF, 30 minutes at 37.5° C., HPLC
  resistance to pepsin digestion (in words): highly resistant

## CC[C@H](C)[C@@H]1NC(=O)[C@@H]2CSSC[C@H](NC(=O)[C@H](CCCCN)NC(=O)[C@@H](NC(=O)[C@H](CC(N)=O)NC(=O)[C@@H](NC(=O)[C@H](CC(=O)O)NC(=O)[C@@H](NC(=O)[C@H](CCC(N)=O)NC(=O)[C@H](CO)NC(=O)CN)[C@@H](C)CC)[C@@H](C)O)C(C)C)C(=O)N[C@@H](CO)C(=O)NCC(=O)N[C@@H](CO)C(=O)N[C@@H](CO)C(=O)N[C@@H](CCCCN)C(=O)N[C@H]3CSSC[C@H](NC(=O)[C@H](CCCNC(=N)N)NC(=O)CNC(=O)[C@H](CC(N)=O)NC1=O)C(=O)N[C@@H]([C@@H](C)O)C(=O)N[C@H](C(=O)N[C@@H](Cc1ccc(O)cc1)C(=O)N1CCC[C@H]1C(=O)O)CSSC[C@H](NC(=O)[C@H]([C@@H](C)CC)NC(=O)[C@H](CCCCN)NC(=O)[C@H](C(C)C)NC3=O)C(=O)N[C@@H]([C@@H](C)CC)C(=O)N[C@@H](CC(=O)O)C(=O)N[C@@H](CCCNC(=N)N)C(=O)N[C@@H](Cc1ccc(O)cc1)C(=O)N[C@@H](CC(N)=O)C(=O)N[C@@H]([C@@H](C)O)C(=O)N[C@@H](CCCNC(=N)N)C(=O)NCC(=O)N[C@@H](C)C(=O)N[C@@H](CCCCN)C(=O)N2 [compound 35] (H-GSQIDTNVKCSGSSKCVKICIDRYNTRGAKCINGRCTCYP-OH; disulfide 10-31, 16-36, 20-38)
trypsin
  Resistance to Trypsin (500 U/ml): Low (A peptide classified as low indicates that the majority (over 75%) of the HPLC peak of the treated peptide disappeared as compared to the HPLC peak of the untreated peptide)
pepsin
  Resistance to Pepsin (500 U/ml): Low (A peptide classified as low indicates that the majority (over 75%) of the HPLC peak of the treated peptide disappeared as compared to the HPLC peak of the untreated peptide)

## CC[C@H](C)[C@@H]1NC(=O)[C@H](CCCNC(=N)N)NC(=O)[C@H]([C@@H](C)CC)NC(=O)[C@@H]2CSSC[C@@H](C(=O)N[C@@H](Cc3ccc(O)cc3)C(=O)N3CCC[C@H]3C(=O)O)NC(=O)[C@H](Cc3ccc(O)cc3)NC(=O)[C@@H]3CSSC[C@H](NC(=O)[C@H](CCC(=O)O)NC(=O)[C@H](CO)NC(=O)[C@H](CO)NC(=O)[C@H](CC(N)=O)NC(=O)[C@H](CC(N)=O)NC(=O)[C@@H](NC(=O)[C@H](CCCNC(=N)N)NC(=O)[C@H](CC(N)=O)NC(=O)[C@H](CO)NC(=O)[C@H](CC(C)C)NC(=O)[C@@H](NC(=O)[C@H](CCCCN)NC(=O)[C@H](CCC(N)=O)NC(=O)[C@H](CO)NC(=O)CN)[C@@H](C)CC)CSSC[C@H](NC(=O)[C@H](CCCCN)NC(=O)[C@H](C)NC(=O)[C@H](C)NC(=O)[C@H](CCCNC(=N)N)NC(=O)[C@H]([C@@H](C)O)NC(=O)CNC(=O)[C@H](Cc4ccccc4)NC1=O)C(=O)N[C@@H]([C@@H](C)CC)C(=O)N[C@@H](CC(N)=O)C(=O)N[C@@H](CCCNC(=N)N)C(=O)N[C@@H](CCCCN)C(=O)N3)C(=O)N[C@@H]([C@@H](C)CC)C(=O)N1CCC[C@H]1C(=O)N[C@@H](Cc1c[nH]cn1)C(=O)N2 [compound 6] (H-GSQKILSNRCNNSSECIPHCIRIFGTRAAKCINRKCYCYP-OH; disulfide 10-31, 16-36, 20-38)
trypsin
  Resistance to Trypsin (500 U/ml): High (A peptide classified as high indicates that the majority (at least 75%) of the HPLC peak of the treated peptide is still present as compared to the HPLC peak of the untreated peptide)
pepsin
  Resistance to Pepsin (500 U/ml): High (A peptide classified as high indicates that the majority (at least 75%) of the HPLC peak of the treated peptide is still present as compared to the HPLC peak of the untreated peptide)

## CC(C)[C@H](NC(=O)[C@H](CO)NC(=O)CN)C(=O)N[C@@H](CO)C(=O)N[C@H]1CSSC[C@@H]2NC(=O)[C@H](CCCCN)NC(=O)[C@H](C)NC(=O)[C@H](CCCNC(=N)N)NC(=O)[C@H](CCC(N)=O)NC(=O)[C@H](CC(=O)O)NC(=O)[C@H](CCCCN)NC(=O)[C@H]([C@@H](C)O)NC(=O)[C@H](C)NC(=O)[C@@H]3CSSC[C@@H](C(=O)N[C@@H](CCC(=O)O)C(=O)N4CCC[C@H]4C(=O)N[C@@H](CCCCN)C(=O)O)NC(=O)[C@H](C(C)C)NC(=O)[C@H](CSSC[C@H](NC(=O)[C@H](CC(=O)O)NC(=O)[C@H](CCC(=O)O)NC1=O)C(=O)N1CCC[C@H]1C(=O)N[C@@H](CCC(=O)O)C(=O)N[C@@H](Cc1c[nH]cn1)C(=O)N3)NC(=O)[C@H](CCCNC(=N)N)NC(=O)[C@H](CC(=O)O)NC(=O)[C@H](CC(N)=O)NC(=O)[C@H](CC(=O)O)NC2=O [compound 54] (H-GSVSCEDCPEHCATKDQRAKCDNDRCVCEPK-OH; disulfide 5-21, 8-26, 12-28)
trypsin
  Resistance to Trypsin (500 U/ml): Low (A peptide classified as low indicates that the majority (over 75%) of the HPLC peak of the treated peptide disappeared as compared to the HPLC peak of the untreated peptide)
pepsin
  Resistance to Pepsin (500 U/ml): High (A peptide classified as high indicates that the majority (at least 75%) of the HPLC peak of the treated peptide is still present as compared to the HPLC peak of the untreated peptide)
